Structures are written as SMILES. Non-standard residues stand in square brackets, D forms with d. Residues, ends and D or L forms follow the SMILES beside them. *: point of attachment. Palmitoyl = CCCCCCCCCCCCCCCC(=O)*

The subject of the assay is MDA-MB-231 triple-negative human breast cancer cells. The assay can be described thus: Cell Titer Blue in vitro cell viability assay, MDA-MB-231. The class given is cell-based. As to conditions: MDA-MB-231 (DMEM); for IC50: MDA-MB-231, 72 h, 3 days at 37° C. Here is the method: FIG. 1: Dose Response curve for MBC017 with MDA-MB-231 cells. Compound MBC017 was incubated with MDA-MB-231 triple-negative human breast cancer cells at the indicated concentrations for 3 days at 37° C. prior to Cell Titer Blue fluorescence-based cell viability assay. Normalized cell viability data, expressed as a percentage, are averaged from three biological replicates and standard error represented by error bars for each averaged data point (empty squares). The compound concentrations are represented on log scale on the x-axis in μM units. Data were analyzed using free software called DrFit, as described in Nature Scientific Reports, Article number: 14701, (2015). […] The data were not sufficient to calculate an accurate IC50 value.
A commercially available in vitro cell viability reagent (Cell Titer Blue) was employed to determine the anti-cancer effectiveness of several compounds (1-5) against multiple cancer and healthy tissue-derived cell lines. Cell lines are summarized in Table 2, as follows: All cell lines and information on each cell lines origins and characteristics were procured from ATCC (www.atcc.org). Common names and ATCC product IDs are shown in the first (leftmost) column. From the left, the second and third columns describe the organism and tissue from which each cell line was isolated. The fourth and fifth columns indicate the cell type and disease status (e.g. normal versus carcinoma) of each cell line. The sixth column provides a summary of what compounds were tested against each cell line using an in vitro cell viability assay. Peptide name IDs are shown in parenthesis for each compound, numbered 1 through 5.
The Cell Titer Blue reagent (available from Promega, Inc.) is a buffered solution containing resazurin, a compound that is converted to resorufin, a detectable fluorescent product, by metabolically active cells. The fluorescence intensity of resorufin product therefore serves as a proportional measure of the number of viable cells, permitting changes in cell viability within cancer or other cell lines to be monitored in response to the addition of cytotoxic or cytostatic agents. Various human breast tissue-derived cell lines are widely employed to study the effects of potential therapeutics against breast cancer in vitro. Human breast cancer cell lines may be subdivided into groups based upon hormone receptor status, i.e. estrogen, progesterone and human epidermal growth factor positive or negative. A healthy human breast tissue-derived cell line, hTERT-HME1 may be used to determine the effect of therapeutic agents on healthy human breast tissue in vitro. Additionally, a highly metastatic and aggressive murine (mouse) breast cancer cell line, 4T1, has been extensively used to monitor breast cancer metastasis from the mammary fat pads of mice to the lungs in order to systematically survey the anti-metastatic effectiveness of anti-cancer therapeutics in an in vivo animal model. Metastases to the lungs may be conveniently quantified by a well-established clonogenic assay. Other human tissue-derived model cell lines, representative of various cancers, other than breast cancer, may be utilized to assess the potential of anti-cancer compounds in vitro. These include, K-562 (chronic myelogenous leukemia), HEPG2 (hepatocellular carcinoma), OVCAR-3 (ovarian adenocarcinoma), SK—N—SH (neuroblastoma) and A549 (lung carcinoma). Several compounds were assayed in vitro using the Cell Titer Blue viability assay against an array of cancer cell lines of both human and murine origin plus one healthy human breast cell line (Table 1, FIGS. 1-16). A mouse 4T1 metastasis study was performed to determine the anti-metastatic potential of one compound, MBC0179 (FIG. 17).
Dimethyl sulfoxide (DMSO), Cremophor EL, methylene blue, 100× antibiotic/antimycotic solution, collagenase (Type IV), DNAse I and 6-thioguanine were available from Millipore-Sigma. […]

As for `CCCCCCCCCCCCCCCC(=O)N[C@@H](Cc1c[nH]cn1)C(=O)N[C@H](C(=O)O)C(C)C` [Compound 1, N-[N-(1-oxohexadecyl)-L-histidyl]-L-valine] (Palmitoyl-His-Val-OH), the cytotoxicity at 125 µM (72 h, 125 μM, relative to vehicle, 3 days of incubation, read-out: reduction in viability) is approximately 40%. Compound `CCCCCCCCCCCCCCCC(=O)N[C@@H](Cc1c[nH]cn1)C(=O)N[C@H](C(=O)O)[C@@H](C)CC` [Compound 2, N-[N-(1-oxohexadecyl)-L-histidyl]-L-isoleucine] (Palmitoyl-His-Ile-OH) yielded an IC50 of 6730 µM.

`CCCCCCCCCCCCCCCC(=O)N[C@@H](Cc1c[nH]cn1)C(=O)N[C@H](C(=O)OCC)C(C)C` [Compound 3, N-[N-(1-oxohexadecyl)-L-histidyl]-L-valine ethyl ester] (Palmitoyl-His-Val-OEt) showed an IC50 of 13.1 µM.

In turn, `CCCCCCCCCCCCCCCC(=O)N[C@H](Cc1c[nH]cn1)C(=O)N[C@@H](C(=O)O)C(C)C` [Compound 4, N-[N-(1-oxohexadecyl)-D-histidyl]-D-valine] (Palmitoyl-[dH]-[dV]-OH) had an IC50 of 62.1 µM.

The record behind these values is patent US20240124520A1, “N-ACYLATED HISTIDINE DIPEPTIDES AS ANTICANCER AGENTS” (THE BOARD OF TRUSTEES OF THE LELAND STANFORD JUNIOR …, priority 2019, published 2024).
